Source: patent US7829721B2, “Specific caspase-10 inhibitors” (Merck Patent GmbH, priority 2004, dated 2010)

How the values were obtained:
caspase 3 = biological target: T1, caspase 3 (Homo sapiens, UniProt P42574); test: Caspase inhibition, delayed-time fluorescence method (europium substrate Eu-W1284-CDEVDK-QSy-7)
T1 sequence (P42574 29-175 limits assumed): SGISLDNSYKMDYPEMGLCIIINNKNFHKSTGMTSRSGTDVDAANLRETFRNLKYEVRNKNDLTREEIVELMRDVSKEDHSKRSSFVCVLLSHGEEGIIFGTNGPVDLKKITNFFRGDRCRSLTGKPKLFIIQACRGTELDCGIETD
T1 sequence (P42574 176-277 limits assumed): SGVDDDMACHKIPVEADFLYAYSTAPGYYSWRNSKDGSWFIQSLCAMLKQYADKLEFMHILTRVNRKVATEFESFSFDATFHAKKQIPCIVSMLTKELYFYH

caspase-10 = biological target: T2, caspase-10 (Homo sapiens, UniProt Q92851); test: Caspase inhibition, delayed-time fluorescence method (europium substrate Eu-W1284-CIETDK-QSy-7)
T2 sequence (Q92851 220-415 limits assumed): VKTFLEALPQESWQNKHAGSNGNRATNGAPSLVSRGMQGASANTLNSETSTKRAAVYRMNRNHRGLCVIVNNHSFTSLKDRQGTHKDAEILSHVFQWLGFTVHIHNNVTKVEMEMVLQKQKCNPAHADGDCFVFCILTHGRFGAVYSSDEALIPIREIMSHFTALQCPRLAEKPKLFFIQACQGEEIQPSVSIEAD
T2 sequence (Q92851 416-521 limits assumed): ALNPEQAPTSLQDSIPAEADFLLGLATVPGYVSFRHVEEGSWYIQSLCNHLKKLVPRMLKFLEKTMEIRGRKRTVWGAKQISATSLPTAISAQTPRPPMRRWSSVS
Experimental: (§1) The substrate used is a tetrapeptide specific to this caspase, having at one of its ends a fluorescent europium marker (W1284) and at the other end a europium chelate fluorescence quencher (QSy-7): Eu-W1284-CIETDK-QSy-7.
(§2) The caspase cleaves the substrate, releasing the quencher. Thus, by excitation at 340 nm, the signal emitted by the fluorescence of the europium is read by WALLAC Victor^2 reader at 615 nm.
20 μl of this solution are distributed per well of the assay plate. […] The assay is performed with 1 U of enzyme per well, by distributing 20 μl of the diluted solution per well. • The standard inhibitors: The standard inhibitors are dissolved in DMSO to a concentration of 10 mM.
(§3) They are then distributed in the wells using this solution to reach the final concentration of IC20 or IC50, i.e. 3 μl in 33 μl of final reaction volume (dilution 1/11). Thus, the final concentration of DMSO in the well is 0.3% (v/v) final. […] An intermediate dilution (1/6.6) is pre-pared in DMSO by diluting 10 μl of the concentrated solution in 66 μl of DMSO (final volume). […] The inhibitors are then distributed in the wells to reach the final screening concentration (10 μM), i.e. 3 μl in 33 μl of final reaction volume (dilution 1/11) and a final concentration of DMSO of 0.3% (v/v) in the well.
(§4) The incubation takes place for 3 hours 30 minutes at room temperature before reading the fluorescence in delayed time on the WALLAC Victor^2 reader with the filters corresponding to the fluorescence of europium (excitation filter: 340 nm, emission filter: 615 nm).
(§5) The inhibitors are diluted using solutions with concentrations of less than 20 mM in DMSO, and then prediluted in the caspase buffer.

caspase 9 = biological target: T3, caspase 9 (Homo sapiens, UniProt P55211); test: Caspase inhibition, delayed-time fluorescence method (europium substrate Eu-W1284-CLEHDK-QSy-7)
T3 sequence (P55211 1-315 limits assumed): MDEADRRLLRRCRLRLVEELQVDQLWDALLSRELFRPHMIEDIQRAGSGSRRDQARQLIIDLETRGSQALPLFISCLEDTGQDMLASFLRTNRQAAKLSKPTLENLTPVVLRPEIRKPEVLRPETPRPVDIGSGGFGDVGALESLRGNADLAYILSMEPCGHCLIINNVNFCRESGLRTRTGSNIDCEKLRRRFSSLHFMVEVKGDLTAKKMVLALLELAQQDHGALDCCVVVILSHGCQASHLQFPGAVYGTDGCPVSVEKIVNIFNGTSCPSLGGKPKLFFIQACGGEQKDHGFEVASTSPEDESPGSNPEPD
T3 sequence (P55211 331-416 limits assumed): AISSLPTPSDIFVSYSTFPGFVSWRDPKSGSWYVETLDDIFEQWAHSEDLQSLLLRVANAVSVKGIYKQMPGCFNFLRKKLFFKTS

caspase 6 = biological target: T4, caspase 6 (Homo sapiens, UniProt P55212); test: Caspase inhibition, delayed-time fluorescence method (europium substrate Eu-W1284-CVEIDK-QSy-7)
T4 sequence (P55212 24-179 limits assumed): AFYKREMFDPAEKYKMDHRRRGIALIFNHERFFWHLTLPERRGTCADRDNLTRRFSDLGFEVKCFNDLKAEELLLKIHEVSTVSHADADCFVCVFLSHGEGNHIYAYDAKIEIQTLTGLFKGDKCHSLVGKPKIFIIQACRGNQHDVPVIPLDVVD
T4 sequence (P55212 194-293 limits assumed): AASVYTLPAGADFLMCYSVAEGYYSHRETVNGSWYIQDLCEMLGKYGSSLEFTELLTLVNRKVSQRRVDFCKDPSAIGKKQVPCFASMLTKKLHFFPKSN

caspase 8 = caspase 8 (Homo sapiens, UniProt Q14790); test: Caspase inhibition, delayed-time fluorescence method (europium substrate Eu-W1284-CIETDK-QSy-7)
Chain of caspase 8 (Q14790 217-374 limits assumed): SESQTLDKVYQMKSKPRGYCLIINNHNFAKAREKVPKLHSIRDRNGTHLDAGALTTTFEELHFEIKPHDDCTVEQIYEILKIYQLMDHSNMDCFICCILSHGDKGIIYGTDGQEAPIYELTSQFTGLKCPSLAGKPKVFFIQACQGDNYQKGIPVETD
Chain of caspase 8 (Q14790 385-479 limits assumed): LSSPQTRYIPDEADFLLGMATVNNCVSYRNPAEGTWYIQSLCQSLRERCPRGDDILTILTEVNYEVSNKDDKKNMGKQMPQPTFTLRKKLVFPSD
Experimental: as §1, §2
They are ready for use or can be divided into aliquots and stored at −80° C. […] 20 μl of this solution are distributed per well of the assay plate. […] The assay is performed with 1 U of enzyme per well, by distributing 20 μl of the diluted solution per well. • The standard inhibitors: The standard inhibitors are dissolved in DMSO to a concentration of 10 mM. They are tested at IC20 and at IC50 on the caspases they inhibit (see following table). The concentrations mentioned in the table are the final concentrations in the assay wells.
as §3
The volumes and the protocol were optimised for automated use.
as §4, §5

caspase 2 = biological target: T5, caspase 2 (Homo sapiens, UniProt P42575); test: Caspase inhibition, delayed-time fluorescence method (europium substrate Eu-W1284-CDEVDK-QSy-7)
T5 sequence (P42575 170-325 limits assumed): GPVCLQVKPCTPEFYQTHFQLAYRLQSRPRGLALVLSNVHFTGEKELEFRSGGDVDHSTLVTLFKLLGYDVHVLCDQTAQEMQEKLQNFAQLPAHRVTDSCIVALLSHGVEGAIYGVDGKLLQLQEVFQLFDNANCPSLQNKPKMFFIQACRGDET
T5 sequence (P42575 348-452 limits assumed): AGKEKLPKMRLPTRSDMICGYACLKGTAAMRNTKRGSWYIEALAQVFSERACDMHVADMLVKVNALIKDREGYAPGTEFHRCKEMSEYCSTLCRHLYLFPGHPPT

diabetic rats = conditions: cited from earlier work

IC50 (caspase 3) [µM] | IC50 (caspase-10) [µM] | IC50 (caspase 9) [µM] | IC50 (caspase 6) [µM] | IC50 (caspase 8) [µM] | IC50 (caspase 2) [µM] | SMILES | reduced formation of acellular capillaries (diabetic rats; diabetic rats treated for 26 weeks) [%] | death of the pericytes (diabetic rats; diabetic rats treated for 29 weeks, versus untreated rats)
> 200 | 13.1 | > 200 | > 200 | > 200 | > 200 | Cc1ccc(-c2ccc(Cl)cc2CC(=O)O)cc1 [Example 12, (4-chloro-4′-methylbiphenyl-2-yl)acetic acid] |  | 
> 200 | 10.1 | > 200 | > 200 | > 200 | > 200 | O=C(O)Cc1cc(Cl)ccc1-c1ccc(Cl)cc1 [Example 14, (4,4′-dichlorobiphenyl-2-yl)acetic acid] |  | 
> 200 | 23.6 | > 200 | > 200 | > 200 | > 200 | O=C(O)Cc1cc(Cl)ccc1-c1ccc(C(F)(F)F)cc1 [Example 15, [4-chloro-4′-(trifluoromethyl)biphenyl-2-yl]acetic acid] |  | 
> 200 | 9 | > 200 | > 200 | > 200 | > 200 | COc1ccc(-c2ccc(Cl)cc2CC(=O)O)cc1 [Example 16, (4-chloro-4′-methoxybiphenyl-2-yl)acetic acid] |  | 
 |  |  |  |  |  | N=C(N)NN [aminoguanidine] | 80 | 
 |  |  |  |  |  | Cc1ncc(CO)c(CN)c1O [pyridoxamine] |  | prevents the death of the pericytes
